Results from patent US7060686B2, “Anti-inflammatory compounds derived from Pseudopterogorgia elisabethae” (The Regents of the University of California, priority 2000, dated 2006).

Experiments:
[1] = system: phorbol 12-myristate 13-acetate (PMA) induced ear edema; details: Jacobs' historical standards; cited from earlier work
[2] = system: phorbol 12-myristate 13-acetate (PMA) induced ear edema; assay: Mouse ear anti-inflammatory assay; format: in vivo; details: for inhibition in vivo at 25 µg/ear: Mus musculus, 200 min; for inhibition in vivo at 25 µg/ear / Edema (mg ± sem) / % Inhibition: topical, 200 minutes; for inhibition in vivo at 25 µg/ear / % Inhibition: 25 μg/ear with PMA, decrease in edema relative to PMA control group; for Relative Potency, Pseudopterosin A: potency estimate relative to Pseudopterosin A (historical ED50 15 μg/ear); for Relative Potency, Pseudopterosin E: potency estimate relative to Pseudopterosin E (historical ED50 40 μg/ear); for Edema (mg ± sem): 25 μg/ear test compound with 2 μg/ear PMA, left minus right ear bore weight, N=5
Experimental: A. Mouse Ear Anti-Inflammatory Assay Each compound was topically applied in acetone to the inside pinnae of the ear of a mouse in a solution containing the edema-causing irritant, phorbol 12-myristate 13-acetate (PMA). 2 μg per ear of PMA alone or 25 μg per ear of test compound in combination with PMA was applied to the left ear of each mouse and acetone (control) was applied to each right ear of each mouse. There were 5 mice per treatment group. After incubating 200 minutes, the mice were sacrificed, the ears were removed, and bores were taken and weighed. Edema (inflammation) was measured by subtracting the weight of the right ear from the weight of the left ear. Results were recorded as % decrease (inhibition) or % increase (potentiation) in edema relative to the PMA control group edema.

SMILES	ED50 [1]	inhibition in vivo at 25 µg/ear [2]	Relative Potency, Pseudopterosin A [2]	Relative Potency, Pseudopterosin E [2]	Edema (mg ± sem) [2]	% Inhibition [2]
CC(C)=C[C@H]1C[C@H](C)[C@H]2CC[C@H](C)c3c(O[C@@H]4OC[C@@H](O)[C@H](O)[C@H]4O)c(O)c(C)c1c32 [Pseudopterosin A]	15 μg/ear					
CC(=O)OC1COC(Oc2c(C)c3c4c(c2O)[C@@H](C)CC[C@@H]4[C@@H](C)CC3C=C(C)C)C(O)C1O (stereo partly shown) [Compound 3]		69%	123%	337%	0.9 ± 0.2 mg	
CC(=O)OC1C(Oc2c(C)c3c4c(c2O)[C@@H](C)CC[C@@H]4[C@@H](C)CC3C=C(C)C)OCC(O)C1O (stereo partly shown) [Compound 1]		68%	118%	324%	2.1 ± 0.5 mg	
CC(C)=C[C@H]1C[C@H](C)[C@H]2CC[C@H](C)c3c(O)c(O[C@@H]4O[C@@H](C)[C@@H](O)[C@@H](O)[C@@H]4O)c(C)c1c32 [Pseudopterosin E]	40 μg/ear					
CC(=O)OC1C(O)C(C)OC(Oc2c(C)cc3c(c2O)[C@@H](C)CC[C@@H]3[C@@H](C)CCC=C(C)C)C1O (stereo partly shown) [Compound 5]		65%	103%	288%	2.4 ± 0.6 mg	
CC(=O)OC1C(Oc2c(C)cc3c(c2O)[C@@H](C)CC[C@@H]3[C@@H](C)CCC=C(C)C)OC(C)C(O)C1O (stereo partly shown) [Compound 4]		88%			0.8 ± 0.2 mg	highest percent inhibition
CC(=O)OC1C(O)COC(Oc2c(C)c3c4c(c2O)[C@@H](C)CC[C@@H]4[C@@H](C)CC3C=C(C)C)C1O (stereo partly shown) [Compound 2]		88%			0.8 ± 0.2 mg	highest percent inhibition
CC(C)=C[C@H]1C[C@H](C)[C@H]2CC[C@H](C)C3=C2C1(O)C(C)=C(O)C3=O (stereo partly shown) [Compound 8, elisabethadiol]		9%			6.2 ± 0.6 mg	
CC(=O)OC1C(C)OC(Oc2c(C)cc3c(c2O)[C@@H](C)CC[C@@H]3[C@@H](C)CCC=C(C)C)C(O)C1O (stereo partly shown) [Compound 6]		74%	148%	410%	1.8 ± 0.3 mg	
CC(C)=CCC[C@H](C)[C@H]1CC[C@H](C)C2=C1C(=O)C(C)=C(O)C2=O [Compound 7, elisabethadione]		83%			1.2 ± 0.1 mg	
